Reference: patent US20090215822A1, “Substituted Oxadiazole Derivatives as Positive Allosteric Modulators of Metabotropic Glutamate Receptors” (NIKEM RESEARCH SRL, priority 2005, published 2009)

Key:
rat mGluR5 receptor = biological target: T1, rat mGluR5 receptor (Rattus norvegicus, UniProt P31424); assay: mGluR5 assay on HEK-expressing rat mGluR5 (fluorescent cell based Ca2+ mobilization assay); conditions: for EC50: HEK-293 cells stably expressing rat mGluR5, no co-addition of glutamate, mean of at least three independent experiments in duplicate, read-out: Ca++ Flux (mean EC50); for activation of rat mGluR5 receptors without co-addition of glutamate: HEK-rat mGluR5 cell line, no added glutamate or agonist
T1 construct: expressed in transfected cells
Description: Positive functional expression of HEK-293 cells stably expressing rat mGluR5 receptor was determined by measuring intracellular Ca^2+ changes using a Fluorometric Imaging Plate Reader (FLIPR, Molecular Devices, Sunnyvale, Calif.) in response to glutamate or selective known mGluR5 agonists and antagonists. Rat mGluR5 RT-PCR products in HEK-293 cells were sequenced and found 100% identical to rat mGluR5 Genbank reference sequence (NM_017012). HEK-293 cells expressing rmGluR5 were maintained in media containing DMEM, dialyzed Fetal Bovine Serum (10%), Glutamax™ (2 mM), Penicillin (100 units/ml), Streptomycin (100 μg/ml), Geneticin (100 μg/ml) and Hygromycin-B (40 μg/ml) at 37° C./5% CO2.
After one day of incubation, cells were washed with assay buffer containing: 142 mM NaCl, 6 mM KCl, 1 mM Mg2SO4, 1 mM CaCl2, 20 mM HEPES, 1 g/L glucose, 0.125 mM sulfinpyrazone, pH 7.4. After 60 min of loading with 4 uM Fluo-4 (TefLabs, Austin, Tex.), the cells were washed three times with 50 μl of PBS Buffer and resuspended in […] of assay Buffer. The plates were then transferred to a Fluorometric Imaging Plate Reader (FLIPR, Molecular Devices, Sunnyvale, Calif.) for the assessment of intracellular calcium flux. After monitoring the baseline fluorescence for 10 seconds, increasing concentrations of representative compound (from 0.01 to 60 μM) of the present invention diluted in Assay Buffer (15 μl of 4× dilutions) was added to the cell. The final DMSO concentration in the assay was 0.3%. In each experiment, fluorescence was then monitored as a function of time for 3 minutes and the data analyzed using Microsoft Excel and GraphPad Prism. Each data point was also measured two times.
Under these experimental conditions, this HEK-rat mGluR5 cell line is able to directly detect positive allosteric modulators without the need of co-addition of glutamate or mGluR5 agonist.
The concentration-response curves of representative compounds of the present invention were generated using the Prism GraphPad software (Graph Pad Inc, San Diego, USA). The curves were fitted to a four-parameter logistic equation:
(Y=Bottom+(Top-Bottom)/(1+10̂((Log EC50−X)*Hill Slope)
allowing determination of EC50 values.
The Table 1 below represents the mean EC50 obtained from at least three independent experiments of selected molecules performed in duplicate.

mGluR5 = biological target: T2, mGluR5 (Rattus norvegicus, UniProt P31424); conditions: Liu et al (2006), Zhang et al (2005); cited from earlier work
T2 construct: positive allosteric modulators of mGluR5 receptors in native preparations; endogenous in cells; host or cells: primary cortical astrocytes from Sprague-Dawley rat embryos (E16-19)
T2 sequence (P31424 21-1203): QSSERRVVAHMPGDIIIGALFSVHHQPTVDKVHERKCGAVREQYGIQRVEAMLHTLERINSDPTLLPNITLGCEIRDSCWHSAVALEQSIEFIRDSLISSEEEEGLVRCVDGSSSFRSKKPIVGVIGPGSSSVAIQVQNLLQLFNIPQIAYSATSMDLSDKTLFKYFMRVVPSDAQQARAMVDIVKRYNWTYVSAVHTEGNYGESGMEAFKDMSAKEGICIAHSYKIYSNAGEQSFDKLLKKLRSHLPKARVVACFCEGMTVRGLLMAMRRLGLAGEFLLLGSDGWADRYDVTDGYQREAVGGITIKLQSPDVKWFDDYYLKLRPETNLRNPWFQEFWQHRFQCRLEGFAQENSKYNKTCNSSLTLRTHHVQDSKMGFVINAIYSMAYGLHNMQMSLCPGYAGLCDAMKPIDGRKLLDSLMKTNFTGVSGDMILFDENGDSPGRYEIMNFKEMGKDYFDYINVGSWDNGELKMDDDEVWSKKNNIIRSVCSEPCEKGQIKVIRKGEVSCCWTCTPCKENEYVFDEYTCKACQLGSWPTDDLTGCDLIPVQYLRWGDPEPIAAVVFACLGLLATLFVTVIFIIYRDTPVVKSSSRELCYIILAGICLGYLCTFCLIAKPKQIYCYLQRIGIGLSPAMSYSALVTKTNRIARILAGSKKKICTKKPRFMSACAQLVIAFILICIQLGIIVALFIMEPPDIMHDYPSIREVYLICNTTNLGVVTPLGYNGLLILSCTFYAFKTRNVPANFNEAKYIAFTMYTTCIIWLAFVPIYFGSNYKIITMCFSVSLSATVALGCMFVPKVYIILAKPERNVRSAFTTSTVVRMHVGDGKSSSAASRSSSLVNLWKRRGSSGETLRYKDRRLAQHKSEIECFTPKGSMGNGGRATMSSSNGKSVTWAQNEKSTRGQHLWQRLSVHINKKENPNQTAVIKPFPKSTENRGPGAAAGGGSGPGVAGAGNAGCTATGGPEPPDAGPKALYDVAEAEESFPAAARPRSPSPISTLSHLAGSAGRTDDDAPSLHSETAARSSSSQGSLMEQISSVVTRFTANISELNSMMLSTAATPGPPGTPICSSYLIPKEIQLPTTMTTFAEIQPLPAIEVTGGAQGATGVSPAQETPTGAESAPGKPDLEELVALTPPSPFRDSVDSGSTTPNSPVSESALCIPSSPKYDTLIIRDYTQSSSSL

T1 sequence (P31424 21-1171 isoform P31424-2 limits assumed): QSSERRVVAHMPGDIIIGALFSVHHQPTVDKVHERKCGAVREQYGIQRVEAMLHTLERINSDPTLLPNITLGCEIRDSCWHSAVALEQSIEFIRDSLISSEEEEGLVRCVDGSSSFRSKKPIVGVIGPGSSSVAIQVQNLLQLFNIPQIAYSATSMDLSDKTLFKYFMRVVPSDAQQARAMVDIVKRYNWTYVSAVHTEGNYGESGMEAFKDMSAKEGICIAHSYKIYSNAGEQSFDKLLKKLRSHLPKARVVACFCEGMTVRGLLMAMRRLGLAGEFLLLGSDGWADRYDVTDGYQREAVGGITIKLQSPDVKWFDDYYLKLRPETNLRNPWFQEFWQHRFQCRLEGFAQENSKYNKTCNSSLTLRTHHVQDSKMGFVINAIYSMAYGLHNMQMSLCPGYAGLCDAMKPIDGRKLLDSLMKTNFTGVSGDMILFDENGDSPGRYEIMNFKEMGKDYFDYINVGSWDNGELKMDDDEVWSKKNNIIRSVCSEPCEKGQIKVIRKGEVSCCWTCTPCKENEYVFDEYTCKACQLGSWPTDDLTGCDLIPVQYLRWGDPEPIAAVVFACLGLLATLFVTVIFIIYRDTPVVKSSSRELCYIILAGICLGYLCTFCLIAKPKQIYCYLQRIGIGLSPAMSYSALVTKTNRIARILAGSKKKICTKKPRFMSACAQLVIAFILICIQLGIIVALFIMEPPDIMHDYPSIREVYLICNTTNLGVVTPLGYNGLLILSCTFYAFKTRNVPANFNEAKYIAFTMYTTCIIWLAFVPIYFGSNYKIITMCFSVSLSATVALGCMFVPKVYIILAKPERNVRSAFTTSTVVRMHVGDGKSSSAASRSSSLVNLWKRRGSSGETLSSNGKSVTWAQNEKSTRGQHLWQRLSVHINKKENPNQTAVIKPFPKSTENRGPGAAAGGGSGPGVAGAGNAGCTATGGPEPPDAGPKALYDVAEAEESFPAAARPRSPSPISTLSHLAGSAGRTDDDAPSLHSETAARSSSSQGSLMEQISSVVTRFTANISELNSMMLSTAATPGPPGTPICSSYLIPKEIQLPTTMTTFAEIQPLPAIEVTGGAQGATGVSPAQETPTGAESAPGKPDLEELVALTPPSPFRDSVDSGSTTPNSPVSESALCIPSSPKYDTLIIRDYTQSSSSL

melting point [°C] | EC50 (rat mGluR5 receptor) [µM] | activation of rat mGluR5 receptors without co-addition of glutamate (rat mGluR5 receptor) | Structure (SMILES) | activity in rat cortical astrocytes culture in the absence of added glutamate (mGluR5)
126 to 129 | 1 to 10 | – | O=C(c1ccc(F)cc1)N1CCCC(c2noc(-c3ccccn3)n2)C1 (centres unmarked) [Example 11, (4-Fluoro-phenyl)-[3-(5-pyridin-2-yl-[1,2,4]oxadiazol-3-yl)-piperidin-1-yl]-methanone] | –
101 | 1 to 10 | – | O=C(c1ccc(F)cc1F)N1CCCC(c2noc(-c3ccc(F)cc3F)n2)C1 (centres unmarked) [Example 19, (2,4-Difluoro-phenyl)-{3-[5-(2,4-difluoro-phenyl)-[1,2,4]oxadiazol-3-yl]-piperidin-1-yl}-methanone] | –
105 to 107 | < 1 | – | Cc1oncc1C(=O)N1CCCC(c2noc(-c3ccc(F)cc3)n2)C1 (centres unmarked) [Example 28, {3-[5-(4-Fluoro-phenyl)-[1,2,4]oxadiazol-3-yl]-piperidin-1-yl}-(5-methyl-isoxazol-4-yl)-methanone] | –
85 | < 1 | – | Cc1noc(C)c1C(=O)N1CCC[C@H](c2noc(-c3ccc(F)cc3)n2)C1 [Example 38, (3,5-Dimethyl-isoxazol-4-yl)-{(S)-3-[5-(4-fluoro-phenyl)-[1,2,4]oxadiazol-3-yl]-piperidin-1-yl}-methanone] | –
131 to 134 | < 1 | – | O=C(c1ccc(F)nc1)N1CCCC(c2noc(-c3ccc(F)cc3)n2)C1 (centres unmarked) [Example 9, {3-[5-(4-Fluoro-phenyl)-[1,2,4]oxadiazol-3-yl]-piperidin-1-yl}-(6-fluoro-pyridin-3-yl)-methanone] | –
65 | < 1 | – | Cc1oncc1C(=O)N1CCC[C@H](c2noc(-c3ccc(F)cc3)n2)C1 [Example 39, {(S)-3-[5-(4-Fluoro-phenyl)-[1,2,4]oxadiazol-3-yl]-piperidin-1-yl}-(5-methyl-isoxazol-4-yl)-methanone] | –
109 to 111 | < 1 | – | O=C(c1ccc(F)nc1)N1CCCC(c2noc(-c3ccccc3)n2)C1 (centres unmarked) [Example 29, (6-Fluoro-pyridin-3-yl)-[3-(5-phenyl-[1,2,4]oxadiazol-3-yl)-piperidin-1-yl]-methanone] | –
110 | 1 to 10 | – | Cc1cc(F)ccc1C(=O)N1CCCC(c2noc(-c3ccc(F)cc3F)n2)C1 (centres unmarked) [Example 31, {3-[5-(2,4-Difluoro-phenyl)-[1,2,4]oxadiazol-3-yl]-piperidin-1-yl}-(4-fluoro-2-methyl-phenyl)-methanone] | –
79 | 1 to 10 | – | Cc1oncc1C(=O)N1CCCC(c2noc(-c3ccc(F)cc3F)n2)C1 (centres unmarked) [Example 24, {3-[5-(2,4-Difluoro-phenyl)-[1,2,4]oxadiazol-3-yl]-piperidin-1-yl}-(5-methyl-isoxazol-4-yl)-methanone] | –
– | – | activating | N#Cc1cccc(C(=O)Nc2cc(-c3ccccc3)nn2-c2ccccc2)c1 [CDPPB, reference compound] | inactive
120 to 123 | 1 to 10 | – | O=C(c1ccc(F)cc1)N1CCC[C@@H](c2noc(-c3ccc(F)cc3)n2)C1 [Example 2, (4-Fluoro-phenyl)-{(R)-3-[5-(4-fluoro-phenyl)-[1,2,4]oxadiazol-3-yl]-piperidin-1-yl}-methanone] | –
93 to 95 | 1 to 10 | – | O=C(c1ccc(F)cn1)N1CCC[C@H](c2noc(-c3ccc(F)cc3)n2)C1 [Example 42, {(S)-3-[5-(4-Fluoro-phenyl)-[1,2,4]oxadiazol-3-yl]-piperidin-1-yl}-(5-fluoro-pyridin-2-yl)-methanone] | –
137 to 139 | 1 to 10 | – | O=C(c1ccc(F)cc1F)N1CCCC(c2noc(-c3ccncc3)n2)C1 (centres unmarked) [Example 16, (2,4-Difluoro-phenyl)-[3-(5-pyridin-4-yl-[1,2,4]oxadiazol-3-yl)-piperidin-1-yl]-methanone] | –
149 to 152 | < 1 | – | O=C(c1ccc(F)c(F)c1)N1CCCC(c2noc(-c3ccc(F)cc3)n2)C1 (centres unmarked) [Example 10, (3,4-Difluoro-phenyl)-{3-[5-(4-fluoro-phenyl)-[1,2,4]oxadiazol-3-yl]-piperidin-1-yl}-methanone] | –
90 | > 10 | – | O=C(c1ccc(F)nc1)N1CCCC(c2noc(-c3cscn3)n2)C1 (centres unmarked) [Example 30, (6-Fluoro-pyridin-3-yl)-[3-(5-thiazol-4-yl-[1,2,4]oxadiazol-3-yl)-piperidin-1-yl]-methanone] | –
– | – | activating | O=C(Nc1ccc(Cl)cc1CN1C(=O)c2ccccc2C1=O)c1ccccc1O [CPPHA, reference compound] | inactive
88 | < 1 | – | O=C(c1ccc(F)cc1)N1CCCC(c2noc(-c3ccc(F)cc3F)n2)C1 (centres unmarked) [Example 13, {3-[5-(2,4-Difluoro-phenyl)-[1,2,4]oxadiazol-3-yl]-piperidin-1-yl}-(4-fluoro-phenyl)-methanone] | –
87 | 1 to 10 | – | O=C(c1ccc(F)nc1)N1CCCC(c2noc(-c3ccc(F)cc3F)n2)C1 (centres unmarked) [Example 25, {3-[5-(2,4-Difluoro-phenyl)-[1,2,4]oxadiazol-3-yl]-piperidin-1-yl}-(6-fluoro-pyridin-3-yl)-methanone] | –
– | – | activating | Fc1cccc(/C=N/N=C/c2cccc(F)c2)c1 [DFB, reference compound] | inactive
137 to 139 | < 1 | – | O=C(c1ccc(F)cc1F)N1CCCC(c2noc(-c3ccc(F)cc3)n2)C1 (centres unmarked) [Example 18, (2,4-Difluoro-phenyl)-{3-[5-(4-fluoro-phenyl)-[1,2,4]oxadiazol-3-yl]-piperidin-1-yl}-methanone] | –
103 to 104 | < 1 | – | O=C(c1ccc(F)nc1)N1CCC[C@H](c2noc(-c3ccc(F)cc3)n2)C1 [Example 36, {(S)-3-[5-(4-Fluoro-phenyl)-[1,2,4]oxadiazol-3-yl]-piperidin-1-yl}-(6-fluoro-pyridin-3-yl)-methanone] | –
128 | 1 to 10 | – | O=C(c1ccc(F)cc1)N1CCCC(c2noc(-c3cscn3)n2)C1 (centres unmarked) [Example 8, (4-Fluoro-phenyl)-[3-(5-thiazol-4-yl-[1,2,4]oxadiazol-3-yl)-piperidin-1-yl]-methanone] | –
132 to 134 | < 1 | – | O=C(c1ccc(F)c(F)c1)N1CCCC(c2noc(-c3ccncc3)n2)C1 (centres unmarked) [Example 15, (3,4-Difluoro-phenyl)-[3-(5-pyridin-4-yl-[1,2,4]oxadiazol-3-yl)-piperidin-1-yl]-methanone] | –
108 to 110 | < 1 | – | O=C(c1ccc(F)cc1)N1CCC[C@H](c2noc(-c3ccc(F)cn3)n2)C1 [Example 44, (S)-(4-fluorophenyl)-{3-[5-(5-fluoropyridin-2-yl)-[1,2,4]oxadiazol-3-yl]-piperidin-1-yl}-methanone] | –
91 | < 1 | – | O=C(c1ccc(F)c(F)c1)N1CCCC(c2noc(-c3ccc(F)cc3F)n2)C1 (centres unmarked) [Example 17, (3,4-Difluoro-phenyl)-{3-[5-(2,4-difluoro-phenyl)-[1,2,4]oxadiazol-3-yl]-piperidin-1-yl}-methanone] | –
